From US20040197834A1, “Method to increase expression of pgd2 receptors and assays for identifying modulators of prostaglandin d2 receptors” (priority 2001, published 2004)
“Also recorded” adds a separate entry of the source.

Columns and labels:
[1] = system: PGD2 receptors (CRTH2 and DP) on HL-60 membranes; assay: [3H]PGD2 radioligand binding assay on HL-60 cell membranes; settings: for binding of labeled PGD2 to membranes: membranes from undifferentiated HL-60 cells; for differentiation-induced increase in PGD2 binding competed away: butyric acid differentiated HL-60, Example 3; for tritiated PGD2 binding on membranes competed away: membranes from butyric acid-differentiated HL-60 cells, 1 uM unlabeled competitor, FIG. 2
Method: (§1) Membranes were isolated from butyric acid-differentiated HL-60 or undifferentiated AML14.3D10 and used in the PGD2 binding assay in the presence or absence of various 1 uM of non-labeled receptor agonists described here below:
(§2) Specific binding of radioactive PGD2 to the membrane was measured and compared to the value obtained in the absence of competitor (ctrl=100% maximum binding).
(§3) HL-60 or AML14.3D10 cells are collected by centrifugation for 6 min at 300 g at 4° C., washed with PBS, centrifuged as before and suspended in 10 mM HEPES/KOH pH 7.4, 1 mM EDTA. The cells are disrupted by nitrogen cavitation (800 psi for 30 min. on ice) in the presence of protease inhibitors (2 mM AEBSF, 10 μM E-64, 100 μM leupeptin and 0.05 mg/ml pepstatin). Cell membrane is isolated by differential centrifugation at 4° C., first at 1000 g for 10 min then 160 000 g for 30 min. After centrifugation the pellet comprising the cell membrane is suspended in 10 mM HEPES/KOH pH 7.4, 1 mM EDTA, pH 7.4 buffer using Dounce homogenization.
(§4) For these assays, specific receptor binding is defined as total associated radioactivity minus the radioactivity measured in the presence of an excess of unlabeled competing ligand. Where possible, more than one competing ligand is used to define residual nonspecific binding. Ligand binding assays are performed using whole cells or cell membranes derived therefrom.
(§5) Radioligand binding assays are performed in 10 mM HEPES/KOH pH 7.4, 1 mM EDTA containing 10 mM MnCl2 and 0.8 nM [^3H]PGD2, in a final volume of 0.2 ml. The reaction is initiated by the addition of 250 μg of membrane protein, prepared as described above. Ligands in dimethylsulfoxide which is kept constant at 1% (v/v) of the final incubation volume are added. Non-specific binding is determined in the presence of 10 μM PGD2. Incubation is conducted for 60 min. at room temperature and is terminated by rapid filtration through GF/C filters prewetted in cold assay incubation buffer (no EDTA) using a Brandel™ harvester. The filter is then washed with 4 ml of the same buffer and residual radioligand bound to the filter is determined by liquid scintillation counting following equilibration in 5 ml Ultima Gold™ (Packard).

[2] = system: PGD2 receptors (CRTH2 and DP) on AML14.3D10 membranes; assay: [3H]PGD2 radioligand binding assay on AML14.3D10 cell membranes; settings: for binding of labeled PGD2 to membranes: membranes from undifferentiated AML14.3D10 cells; for differentiation-induced increase in PGD2 binding competed away: butyric acid differentiated AML14.3D10, Example 3; for tritiated PGD2 binding on membranes competed away: membranes from nondifferentiated or differentiated AML14.3D10, 1 uM unlabeled competitor, FIG. 2
Method: as §1, §2, §3, §4, §5

HL-60 cells = assay: Butyric acid induced differentiation of HL-60 cells, read out as PGD2 binding to membranes; assay type: cell-based; settings: 0.4 mM butyric acid for 7 days
Method: (§6) For example, referring to FIG. 1, shown therein are the results of a binding assay, specifically the binding of radioactive PGD2 to membranes. The assay measures the amount of labeled […] bound to cell membranes derived from the herein disclosed cell lines. Briefly, AML14.3D10 and […] cell lines are incubated in the absence and/or presence of […] of butyric acid for 7 days. Membranes were thereafter isolated from the cells and used in aforementioned PGD2 binding assays.
(§7) On the first day of the experiment cells are split at 2×10^5 cells/ml and supplemented with 0.4 mM butyric acid. On the fourth day the cells are diluted to 2×10^5 cells/ml and the concentration of butyric acid is adjusted to 0.4 mM. The cells are harvested on the seventh day.
(§8) HL-60 or AML14.3D10 cells are collected by centrifugation for 6 min at 300 g at 4° C., washed with PBS, centrifuged as before and suspended in 10 mM HEPES/KOH pH 7.4, 1 mM EDTA. […]
(§9) Radioligand binding assays are performed in 10 mM HEPES/KOH pH 7.4, 1 mM EDTA containing 10 mM MnCl2 and 0.8 nM [^3H]PGD2, in a final volume of 0.2 ml. […] Non-specific binding is determined in the presence of 10 μM PGD2. […] The filter is then washed with 4 ml of the same buffer and residual radioligand bound to the filter is determined by liquid scintillation counting following equilibration in 5 ml Ultima Gold™ (Packard).

AML14.3D10 cells = assay: Butyric acid induced differentiation of AML14.3D10 cells, read out as PGD2 binding to membranes; assay type: cell-based; settings: 0.4 mM butyric acid for 7 days
Method: as §6, §7, §8, §9

Structure (SMILES)	binding of labeled PGD2 to membranes [1]	binding of labeled PGD2 to membranes ([1]; listed as 3HPGD2)	binding of labeled PGD2 to membranes [2]	binding of labeled PGD2 to membranes ([2]; listed as 3HPGD2)	differentiation-induced increase in PGD2 binding competed away [1]	tritiated PGD2 binding on membranes competed away [1]	differentiation-induced increase in PGD2 binding competed away [2]	tritiated PGD2 binding on membranes competed away [2]	effect of butyric acid treatment on PGD2 binding to membranes (HL-60 cells)	effect of butyric acid treatment on PGD2 binding to membranes (AML14.3D10 cells)
CCCCC[C@H](O)/C=C/[C@H]1C(=O)C[C@H](O)[C@@H]1C/C=C\CCCC(=O)O [PGD2, Prostaglandin D2]	minimal amount of PGD2 binding	does not bind	appreciable level of PGD2 binding	significant level of binding						
CCCCCC(=O)CCC1C(=O)CC(O)C1C/C=C\CCCC(=O)O (centres unmarked) [DK-PGD2, 13,14-dihydro-15-keto-PGD2]					About 90%	about 90%	About 90%	about 90%		
CCCC(=O)O [butyric acid]									significant increase in PGD2 binding; also recorded: acquired the capacity to bind	significant increase in PGD2 binding; also recorded: increased binding of PGD2
O=C(O)CCCCCCC1C(=O)NC(=O)N1CCC(O)C1CCCCC1 (centres unmarked) [BW245C]					about 10%	about 10%	about 10%	about 10%		
